ChEMBL document CHEMBL4043270, “Design, synthesis and biological evaluation of 2-phenylquinoline-4-carboxamide derivatives as a new class of tubulin polymerization inhibitors” (Bioorg Med Chem, 2017)
pIC50: −log10 of the molar value.

system: MDA-MB-468; assay: Antiproliferative activity against human MDA-MB-468 cells by SRB assay; assay type: functional, cell-based

| Compound | pIC50 |
| --- | --- |
| COc1ccc(NC(=O)c2cc(-c3ccccc3)nc3ccc(F)cc23)cc1 | < 4.30 |
| COc1ccc(NC(=O)c2cc(-c3ccccc3)nc3ccc(Cl)cc23)cc1 | < 4.30 |
| COc1cc(OC)c(NC(=O)c2cc(-c3ccccc3)nc3ccccc23)cc1Cl | 4.37 |
| CCOc1ccc(NC(=O)c2cc(-c3ccccc3)nc3ccccc23)cc1 | < 4.30 |
| C=CCNC(=S)NC(=O)c1cc(-c2ccccc2)nc2ccccc12 | < 4.30 |
| COc1ccc(NC(=O)c2cc(-c3ccc(C)cc3)nc3ccc(C)cc23)cc1 | 4.49 |
| COc1ccc(NC(=O)c2cc(-c3ccccc3)nc3ccccc23)c(C)c1 | 4.70 |
| COc1ccc(NC(=O)c2c3c(nc4ccc(Cl)cc24)-c2ccccc2CC3)cc1 | < 4.30 |

system: HeLa; assay: Antiproliferative activity against human HeLa cells by SRB assay; assay type: functional, cell-based

| Compound | pIC50 |
| --- | --- |
| COc1ccc(NC(=O)c2cc(-c3ccccc3)nc3ccc(F)cc23)cc1 | < 4.30 |
| COc1ccc(NC(=O)c2cc(-c3ccccc3)nc3ccc(Cl)cc23)cc1 | 4.40 |
| COc1cc(OC)c(NC(=O)c2cc(-c3ccccc3)nc3ccccc23)cc1Cl | 4.37 |
| CCOc1ccc(NC(=O)c2cc(-c3ccccc3)nc3ccccc23)cc1 | < 4.30 |
| C=CCNC(=S)NC(=O)c1cc(-c2ccccc2)nc2ccccc12 | < 4.30 |
| COc1ccc(NC(=O)c2cc(-c3ccc(C)cc3)nc3ccc(C)cc23)cc1 | 4.79 |
| COc1ccc(NC(=O)c2cc(-c3ccccc3)nc3ccccc23)c(C)c1 | 4.79 |
| COc1ccc(NC(=O)c2c3c(nc4ccc(Cl)cc24)-c2ccccc2CC3)cc1 | < 4.30 |

system: HCT-116; assay: Antiproliferative activity against human HCT116 cells by SRB assay; assay type: functional, cell-based

| Compound | pIC50 |
| --- | --- |
| COc1ccc(NC(=O)c2cc(-c3ccccc3)nc3ccc(F)cc23)cc1 | 4.47 |
| COc1ccc(NC(=O)c2cc(-c3ccccc3)nc3ccc(Cl)cc23)cc1 | 4.61 |
| COc1cc(OC)c(NC(=O)c2cc(-c3ccccc3)nc3ccccc23)cc1Cl | < 4.30 |
| CCOc1ccc(NC(=O)c2cc(-c3ccccc3)nc3ccccc23)cc1 | 4.31 |
| C=CCNC(=S)NC(=O)c1cc(-c2ccccc2)nc2ccccc12 | < 4.30 |
| COc1ccc(NC(=O)c2cc(-c3ccc(C)cc3)nc3ccc(C)cc23)cc1 | 4.98 |
| COc1ccc(NC(=O)c2cc(-c3ccccc3)nc3ccccc23)c(C)c1 | 5.11 |
| COc1ccc(NC(=O)c2c3c(nc4ccc(Cl)cc24)-c2ccccc2CC3)cc1 | 4.40 |

system: SK-OV-3; assay: Antiproliferative activity against human SKOV3 cells by SRB assay; assay type: functional, cell-based

| Compound | pIC50 |
| --- | --- |
| COc1ccc(NC(=O)c2cc(-c3ccccc3)nc3ccc(F)cc23)cc1 | 4.53 |
| COc1ccc(NC(=O)c2cc(-c3ccccc3)nc3ccc(Cl)cc23)cc1 | 4.69 |
| COc1cc(OC)c(NC(=O)c2cc(-c3ccccc3)nc3ccccc23)cc1Cl | 4.44 |
| CCOc1ccc(NC(=O)c2cc(-c3ccccc3)nc3ccccc23)cc1 | 4.34 |
| C=CCNC(=S)NC(=O)c1cc(-c2ccccc2)nc2ccccc12 | < 4.30 |
| COc1ccc(NC(=O)c2cc(-c3ccc(C)cc3)nc3ccc(C)cc23)cc1 | 5.08 |
| COc1ccc(NC(=O)c2cc(-c3ccccc3)nc3ccccc23)c(C)c1 | 5.08 |
| COc1ccc(NC(=O)c2c3c(nc4ccc(Cl)cc24)-c2ccccc2CC3)cc1 | 4.42 |

system: A549; assay: Antiproliferative activity against human A549 cells by SRB assay; assay type: functional, cell-based

| Compound | pIC50 |
| --- | --- |
| COc1ccc(NC(=O)c2cc(-c3ccccc3)nc3ccc(F)cc23)cc1 | < 4.30 |
| COc1ccc(NC(=O)c2cc(-c3ccccc3)nc3ccc(Cl)cc23)cc1 | < 4.30 |
| COc1cc(OC)c(NC(=O)c2cc(-c3ccccc3)nc3ccccc23)cc1Cl | < 4.30 |
| CCOc1ccc(NC(=O)c2cc(-c3ccccc3)nc3ccccc23)cc1 | < 4.30 |
| C=CCNC(=S)NC(=O)c1cc(-c2ccccc2)nc2ccccc12 | < 4.30 |
| COc1ccc(NC(=O)c2cc(-c3ccc(C)cc3)nc3ccc(C)cc23)cc1 | 4.53 |
| COc1ccc(NC(=O)c2cc(-c3ccccc3)nc3ccccc23)c(C)c1 | 4.63 |
| COc1ccc(NC(=O)c2c3c(nc4ccc(Cl)cc24)-c2ccccc2CC3)cc1 | < 4.30 |

system: MRC5; assay: Antiproliferative activity against human MRC5 cells by SRB assay; assay type: cell-based

| Compound | pIC50 |
| --- | --- |
| COc1ccc(NC(=O)c2cc(-c3ccccc3)nc3ccc(F)cc23)cc1 | < 4.30 |
| COc1ccc(NC(=O)c2cc(-c3ccccc3)nc3ccc(Cl)cc23)cc1 | < 4.30 |
| COc1cc(OC)c(NC(=O)c2cc(-c3ccccc3)nc3ccccc23)cc1Cl | < 4.30 |
| CCOc1ccc(NC(=O)c2cc(-c3ccccc3)nc3ccccc23)cc1 | < 4.30 |
| C=CCNC(=S)NC(=O)c1cc(-c2ccccc2)nc2ccccc12 | < 4.30 |
| COc1ccc(NC(=O)c2cc(-c3ccc(C)cc3)nc3ccc(C)cc23)cc1 | < 4.30 |
| COc1ccc(NC(=O)c2cc(-c3ccccc3)nc3ccccc23)c(C)c1 | < 4.30 |
| COc1ccc(NC(=O)c2c3c(nc4ccc(Cl)cc24)-c2ccccc2CC3)cc1 | < 4.30 |
